Earlier results, collected in paper PMC12308805, “Ultrahigh-Throughput Virtual Screening Strategies against PPI Targets: A Case Study of STAT Inhibitors” (Journal of Chemical Information and Modeling, 2025).
Where two headings read alike, the source gives them in different places.

Test system: STAT3
Conditions: sheet 6QHD_actives_decoys, cited from earlier work; for Type: retrospective screening set for STAT3 SH2 domain (PDB 6QHD), ref DUD-E
[1] = decoys generated with DUD-E and presumed inactive, not tested
[2] = decoys are presumed inactives, not tested

Compound | Type [1] | Type [2] | further results
COC(=O)CCSCCO[C@@H]1O[C@H](CO)[C@@H](O[C@@H]2O[C@H](CO)[C@@H](O)[C@@H](O)[C@H]2O)[C@H](O)[C@@H]1NC(C)=O [Decoy353] | Inactive (Decoy) | – | –
CCCOc1ccc(C(=O)C2=C(O)C(=O)N(CCN3CCOCC3)[C@@H]2c2ccc(O)c(OC)c2)cc1C [Decoy564] | Inactive (Decoy) | – | –
C=CCSc1nnc(/N=C(\O)CSc2nnc(N/N=C/c3c(O)ccc4ccccc34)n2N)s1 [Decoy343] | Inactive (Decoy) | – | –
CCOC(=O)c1c(NC(=O)c2ccc([N+](=O)[O-])cc2)sc2c(OCCN(CC)CC)c(Br)ccc12 [Decoy671] | Inactive (Decoy) | – | –
CCC(CC)C(=O)Nc1cccc(C(=O)Nc2ccc(S(=O)(=O)Nc3nccc(C)n3)cc2)c1 [Decoy917] | – | Inactive (Decoy) | –
CC1(C)NC(=O)N(C[C@@H](O)COc2ccc(-c3ccc(OC[C@H](O)CN4C(=O)NC(C)(C)C4=O)cc3)cc2)C1=O [Decoy539] | Inactive (Decoy) | – | –
C/C=C(/C[C@H](O)N(C=O)Cc1cnc(C)nc1N)SS/C(=C/C)C[C@@H](O)N(C=O)Cc1cnc(C)nc1N [Decoy935] | – | Inactive (Decoy) | –
CCOC(=O)c1ccc(NC(=O)CCN2C(=O)/C(=C3\SC(=S)N(CCC(=O)Nc4ccc(C(=O)OCC)cc4)C3=O)SC2=S)cc1 [Decoy869] | – | Inactive (Decoy) | –
C=CCn1c(Cc2csc(N)n2)nnc1SCC(=O)Nc1ccc(S(=O)(=O)Nc2cc(C)on2)cc1 [Decoy336] | Inactive (Decoy) | – | –
CCOC(=O)[C@@](NC(=O)Nc1ccc(S(=O)(=O)Nc2nnc(SCC)s2)cc1)(c1ccc(F)cc1)C(F)(F)F [Decoy418] | – | – | Type ([…]): Inactive (Decoy)
Nn1c(N/N=C/c2c(O)ccc3ccccc23)nnc1SCCC(=O)Nc1ccc2c(c1)C(=O)NC2=O [Decoy439] | Inactive (Decoy) | – | –
Nc1ccc(/N=N\c2ccc3cc(S(=O)(=O)O)c(/N=N/c4ccc(/N=N/c5ccc(N)cc5N)c(S(=O)(=O)O)c4)c(O)c3c2)c(N)c1 [Decoy383] | Inactive (Decoy) | – | –
CC(=O)OC[C@@H](OC(C)=O)[C@H](OC(C)=O)[C@H](OC(C)=O)[C@H](OC(C)=O)[C@@H]1N[C@H](C(=O)O)C(C)(C)S1 [Decoy590] | Inactive (Decoy) | – | –
COc1cc(/C=N/Nc2nnc(SCC(=O)NCCc3ccc(Cl)cc3)n2N)cc(OC)c1OC [Decoy559] | Inactive (Decoy) | – | –
NC(=O)CN(CC(N)=O)c1ccc(F)cc1OCCOc1cc(F)ccc1N(CC(N)=O)CC(N)=O [Decoy400] | Inactive (Decoy) | – | –
CCc1ccc2[nH]c(=O)c(CN(CCc3ccc(OC)c(OC)c3)Cc3nnnn3Cc3ccccc3)cc2c1 [Decoy770] | – | Inactive (Decoy) | –
C=C[C@@](C)(CC/C=C(\C)CC/C=C(\C)C[C@H](O)/C=C(\C)C(=O)O)O[C@@H]1O[C@H](CO)[C@@H](O)[C@H](O)[C@H]1O[C@@H]1O[C@H](CO)[C@@H](O)[C@H](O)[C@H]1O [Decoy688] | Inactive (Decoy) | – | –
NCCCCCC(=O)OC[C@@H]1O[C@@H](Oc2ccc(-c3coc4cc(O)cc(O)c4c3=O)cc2)[C@@H](O)[C@H](O)[C@@H]1O [Decoy461] | Inactive (Decoy) | – | –
COc1cc([C@@H]2C(C(=O)c3ccc4c(c3)OCCO4)=C(O)C(=O)N2CCCn2ccnc2)cc(Br)c1O [Decoy647] | Inactive (Decoy) | – | –
CSc1cccc(NC(=O)C[C@@H]2SC(N[C@H](c3cccs3)c3c(O)[nH]c(=O)[nH]c3=O)=NC2=O)c1 [Decoy681] | – | – | Type ([…]): Inactive (Decoy)
CC(=O)NC[C@H](CCC(N)=O)NC(=O)[C@@H]1CCCN1C(=O)[C@H](CC(C)C)NC(=O)/C=C/c1ccc(OP(=O)(O)O)cc1 [CHEMBL573442] | – | – | Type (known STAT3 active) (known STAT3 actives of the retrospective screening set, ref ChEMBL / literature): Active
O=C(/C=C/c1ccc(O)c2c1[C@@H](C(=O)O[C@@H](Cc1ccc(O)c(O)c1)C(=O)O)[C@H](c1ccc(O)c(O)c1)O2)O[C@H](Cc1ccc(O)c(O)c1)C(=O)O [Decoy572] | Inactive (Decoy) | – | –
CCOC(=O)c1ccc(NC(=O)CSc2nnc(CNC(=O)c3ccco3)n2-c2ccc(OCC)cc2)cc1 [Decoy789] | – | Inactive (Decoy) | –
Cc1nnc(CSc2nnc(NC(=O)CSc3n[nH]c(N/N=C/c4ccncc4)n3)s2)o1 [Decoy801] | – | Inactive (Decoy) | –
CC(=O)N[C@@H]1[C@@H](O)[C@H](O[C@@H]2O[C@H](CO)[C@H](O)[C@H](O[C@@]3(C(=O)O)C[C@H](O)[C@H](NC(C)=O)[C@H]([C@H](O)[C@H](O)CO)O3)[C@H]2O)[C@@H](CO)O[C@H]1O [Decoy637] | Inactive (Decoy) | – | –
O=C(CCC(=O)Nc1ccc(S(=O)(=O)Nc2nccs2)cc1)Nc1ccc(S(=O)(=O)Nc2nccs2)cc1 [Decoy422] | – | – | Type ([…]): Inactive (Decoy)
COCCOc1ccc(C(F)(F)F)cc1NC(=O)CSc1nnc(-c2ccc(OC)cc2)o1 [Decoy488] | Inactive (Decoy) | – | –
O=C(CSc1cn[nH]n1)Nc1ccc(-c2nc3ccc(NC(=O)CSc4cn[nH]n4)cc3s2)c(O)c1 [Decoy624] | Inactive (Decoy) | – | –

Compound | Type [1] | Type [2] | further results
O=C1N=C([C@]2(C3=Nc4nnc(/N=C(\O)Nc5ccc(Cl)cc5)n4C3=O)Cc3ccccc3C2=O)n2c(/N=C(\O)Nc3ccc(Cl)cc3)nnc21 [Decoy896] | – | Inactive (Decoy) | –
C/C=C(/C[C@@H](O)N(C=O)Cc1cnc(C)nc1N)SS/C(=C/C)C[C@@H](O)N(C=O)Cc1cnc(C)nc1N [Decoy342] | Inactive (Decoy) | – | –
CCCOc1ccc([C@@H]2C(C(=O)c3c(C)nc4ccccn34)=C(O)C(=O)N2CCN(CC)CC)cc1OCC [Decoy759] | – | Inactive (Decoy) | –
CCCNC(=O)CN1CCN(c2cc(C(=O)O)c3cc(NS(=O)(=O)c4cccc(C)c4)ccc3n2)CC1 [Decoy646] | – | – | Type ([…]): Inactive (Decoy)
CC(O)(O)C(=O)OCC(C)(COC(=O)C(C)(O)O)C(=O)OCC(C)(COC(=O)C(C)(COC(=O)C(C)(O)O)COC(=O)C(C)(O)O)C(=O)OCCS [Decoy812] | – | Inactive (Decoy) | –
COC(=O)c1[nH]c(C)c(C(=O)C2=C(O)C(=O)N(CCN3CCOCC3)[C@@H]2c2cc(OC)c(OC)c(OC)c2)c1C [Decoy872] | – | Inactive (Decoy) | –
COc1cc(NS(=O)(=O)c2ccc(NC(=S)NC(=O)/C=C/c3cccc4ccccc34)cc2)ncn1 [Decoy659] | Inactive (Decoy) | – | –
CCOC(=O)c1c(NC(=O)CSc2n[nH]c(N/N=C/c3c[nH]c4ccccc34)n2)sc2c1CCC2 [Decoy751] | – | Inactive (Decoy) | –
COc1cc([C@H]2C(C(=O)c3nc4c(C)cccn4c3C)=C(O)C(=O)N2CCCN2CCOCC2)ccc1O [Decoy674] | Inactive (Decoy) | – | –
COc1ccc(NC(=O)CSc2nnc(NC(=O)c3cc(OC)c(OC)c(OC)c3)s2)cc1OC [Decoy923] | – | Inactive (Decoy) | –
CCCCCOc1ccc([C@@H]2C(C(=O)c3c(C)nc4ccccn34)=C(O)C(=O)N2CCN(C)C)cc1OCC [Decoy423] | Inactive (Decoy) | – | –
C=C[C@@](C)(O)CC/C=C(\C)C(=O)O[C@@H]1[C@@H]2O[C@]2(C)[C@H]2[C@H](O[C@@H]3O[C@H](CO)[C@@H](O)[C@H](O)[C@H]3O)OC=C[C@@]12O [Decoy691] | Inactive (Decoy) | – | –
CCN(CC)S(=O)(=O)c1ccc(NC(=O)CSc2nnc(N/N=C/c3cccc(O)c3)n2N)cc1 [Decoy398] | Inactive (Decoy) | – | –
CCCCCOc1ccc([C@H]2C(C(=O)c3ccc4c(c3)OCCO4)=C(O)C(=O)N2CCCN2CCOCC2)cc1OCC [Decoy434] | Inactive (Decoy) | – | –
COC(=O)[C@@H]1[C@H](O)[C@H](C)[C@H](O)O[C@@H]1[C@H](C)[C@H](O)[C@@H](C)/C=C\C=C(/C)C(=O)Nc1c(C)c(OC(C)=O)c2c(c1O)C(=O)C(C)=C1OCOC(/C(C)=C/C(C)=O)=C12 [Decoy345] | Inactive (Decoy) | – | –
CC[C@H]1OC(=O)[C@H](C)[C@@H](O[C@@H]2C[C@@](C)(OC)[C@H](O)[C@H](C)O2)[C@H](C)[C@H](O[C@H]2O[C@@H](C)C[C@@H](N(C)C)[C@H]2O)[C@](C)(O)C[C@@H](C)/C(=N\OCOCCOC)[C@H](C)[C@@H](O)[C@]1(C)O [Decoy581] | Inactive (Decoy) | – | –
Cc1cc(NS(=O)(=O)c2ccc(N/N=C(/C#N)C(=O)Nc3ccc(S(N)(=O)=O)cc3)cc2)no1 [Decoy483] | Inactive (Decoy) | – | –
Cc1ccc(S(=O)(=O)Nc2ccc(N3CCN(CC(=O)NCC(C)C)CC3)cc2C(=O)O)cc1 [Decoy918] | – | Inactive (Decoy) | –
CCCCN(C)S(=O)(=O)c1ccc(C(=O)Nc2ccc(S(=O)(=O)Nc3nc(C)cc(C)n3)cc2)cc1 [Decoy757] | – | Inactive (Decoy) | –
CCOC(=O)c1sc(NC(=O)CCCS(=O)(=O)c2nc(-c3ccccc3OC)cc(C(F)(F)F)n2)c(C(N)=O)c1C [Decoy482] | Inactive (Decoy) | – | –
COc1cccc(/C=N/NC(=O)[C@H](C)Sc2nnc(S[C@H](C)C(=O)N/N=C/c3cccc(OC)c3OC)s2)c1OC [Decoy736] | – | Inactive (Decoy) | –
C[C@@H]1O[C@@H](O[C@H]2[C@H](O[C@@H]3CC[C@@H]4C(=CC[C@@H]5[C@@]4(C)C(=O)C[C@]4(C)[C@H]([C@@]6(C)O[C@H](C(C)(C)O)CC6=O)[C@H](O)C[C@@]54C)C3(C)C)O[C@H](CO)[C@@H](O)[C@@H]2O)[C@H](O)[C@H](O)[C@H]1O [Decoy472] | Inactive (Decoy) | – | –
COc1cc(/C=N/NC(=O)CSc2nnc(-c3cccc([N+](=O)[O-])c3)n2N)c([N+](=O)[O-])cc1O [Decoy787] | – | Inactive (Decoy) | –
C/C(=C(\CCO)SS/C(CCO)=C(\C)N(C=O)Cc1cnc(C)nc1N)N(C=O)Cc1cnc(C)nc1N [Decoy781] | – | Inactive (Decoy) | –
CCOc1ccc(-c2nn(-c3ccccc3)cc2C2C(C(=O)OCCOC)=C(C)NC(C)=C2C(=O)OCCOC)cc1C [Decoy832] | – | Inactive (Decoy) | –
COc1ccc(-c2cc(=O)c3c(O)c(OC)c(O[C@@H]4O[C@H](CO[C@@H]5O[C@@H](C)[C@H](O)[C@@H](O)[C@H]5O)[C@@H](O)[C@H](O)[C@H]4O)cc3o2)cc1 [Decoy661] | Inactive (Decoy) | – | –
C=C[C@H]1[C@H](O[C@H]2O[C@@H](CO)[C@@H](O)[C@@H](O)[C@@H]2O)OC=C(C(=O)OC)[C@H]1CCOC(=O)c1cc(O)c(O)c(O)c1 [Decoy699] | Inactive (Decoy) | – | –
